Assay results taken from US6001799A, “Method of treating hepatitis C in non-responders to interferon treatment” (SciClone Pharmaceuticals, Inc., priority 1993, dated 1999).
Where no end group is shown, it is not given here.

Assays:
HCV-related diseases = conditions: in vivo; cited from earlier work
Hepatitis C = assay: Treatment of Hepatitis C patients with Thymosin α-1 during α-IFN administration (Example 6); type: in vivo, human; conditions: after 6 months
Method: The course of the disease and its response to drug treatments may be followed by clinical examination and laboratory findings.
Efficacy of Thymosin α-1 for treatment of Hepatitis C was shown in two Hepatitis C patients who were previous non-responders to α-interferon. These two patients were treated with Thymosin α-1 by subcutaneous injection of 1 mg thereof twice weekly, during administration three times weekly of 2 million units of α-IFN. […] In three additional Hepatitis C patients treated as above, serum ALT levels were reduced 50% after 6 months.

[1] = tested on: response to influenza vaccine; conditions: cited from earlier work
[2] = tested on: Woodchuck Hepatitis Virus; conditions: infected woodchuck; cited from earlier work
hepatitis B virus (HBV) = conditions: treated for a year, cited from earlier work
[3] = tested on: nonsmall cell lung cancer; conditions: both THNα1 treatment groups; cited from earlier work

| Compound | effectiveness in halting or slowing progression of HCV-related diseases (HCV-related diseases) | reduction of serum ALT (threshold not achieved) (Hepatitis C; six additional Hepatitis C patients, same regimen with α-IFN) | response to treatment (serum ALT levels reduced to normal) (Hepatitis C; six other Hepatitis C patients, same regimen with α-IFN) | serum ALT levels reduced (Hepatitis C; three additional Hepatitis C patients, same regimen with α-IFN) | reduction of serum alanine transaminase (ALT) (Hepatitis C; two patients, previous non-responders to α-interferon, 1 mg s.c. twice weekly during 2 million units α-IFN three times weekly) | antibody to influenza ([1]; s.c. twice weekly from vaccination, six weeks post-vaccine) | toxicity in drug recipients ([1]; s.c. twice weekly) | clinical parameters [2] | viral DNA replication [2] | serum ALT (hepatitis B virus (HBV); THNα1 5 patients, TF-5 2 patients) | patients initially positive for HBSAg who cleared this antigen (hepatitis B virus (HBV); THNα1 and TF-5 patients pooled) | patients with reduced levels of serum HBV DNA (hepatitis B virus (HBV); THNα1 and TF-5 patients pooled) | relapse-free survival and overall survival versus placebo group [3] |
| --- | --- | --- | --- | --- | --- | --- | --- | --- | --- | --- | --- | --- | --- |
| Nc1nc2c(ncn2COCCO)c(=O)[nH]1 [acyclovir] | ineffective | – | – | – | – | – | – | – | – | – | – | – | – |
| Thymosin α-1 (SDAAVDTSSEITTKDLKEKKEVVEEAEN; ends and bridges not checked; UniProt P06454 2-29, looked up) | – | < 50% | complete response | 50% | 50% | higher levels of antibody to influenza than controls | No clinical or biochemical toxicity | no improvement | suppressed viral DNA replication | marked decrease | 5 of 6 | 6 of the 7 | greater |
